# From patent US20150190377A1, “NEURONAL REGENERATION” (The Regents of the University of California, a California …, priority 2014, published 2015)
# Residue numbers refer to the chain shown, from its start.
# Columns and labels:
# SOCS3 [1] = molecular target: T1, SOCS3 (Mus musculus, UniProt O35718); test: Western blot of phosphorylated STAT3 (SOCS3 inhibition), mouse N2A cells; assay type: cell-based; conditions: increasing concentration
# T1 construct: Western blot analysis of cultured mouse (N2A) cells; endogenous in cells; host or cells: mouse N2A cells
# T1 sequence (O35718 1-225): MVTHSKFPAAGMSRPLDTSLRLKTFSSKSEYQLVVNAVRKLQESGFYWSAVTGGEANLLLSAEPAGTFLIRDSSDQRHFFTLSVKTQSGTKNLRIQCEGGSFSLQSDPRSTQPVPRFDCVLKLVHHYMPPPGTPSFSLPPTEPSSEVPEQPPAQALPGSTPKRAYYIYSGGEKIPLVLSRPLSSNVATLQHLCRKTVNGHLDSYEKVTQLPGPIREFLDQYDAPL
# Procedure: (§1) Likewise, the inhibition of SOCS3 was tested following the phosphorylated form of STAT3.
# SOCS3 [2] = molecular target: T2, SOCS3 (Homo sapiens, UniProt O14543); test: Western blot of phosphorylated STAT3 (SOCS3 inhibition), human 293 cells; assay type: cell-based; conditions: increasing concentration
# T2 construct: Western blot analysis of cultured human (293) cells; endogenous in cells; host or cells: human 293 cells
# T2 sequence (O14543 1-225): T1 sequence (O35718 1-225) with T133A, S137P, L138S, P152S, A155P, T160P, K162R
# Procedure: as §1
# SOCS3 [3] = molecular target: T3, SOCS3 (Rattus norvegicus, UniProt O88583); test: Western blot of phosphorylated STAT3 (SOCS3 inhibition), rat PC12 cells; assay type: cell-based; conditions: increasing concentration
# T3 construct: Western blot analysis of cultured rat (PC12) cells; endogenous in cells; host or cells: rat PC12 cells
# T3 sequence (O88583 1-225): T1 sequence (O35718 1-225) with K85E, T133A, S145F, P148Q, S159G
# Procedure: as §1
# PTEN [4] = molecular target: T4, PTEN (Mus musculus, UniProt O08586); test: Western blot of phosphorylated AKT (PTEN inhibition), mouse N2A cells; assay type: cell-based; conditions: increasing concentrations, pAKT (Ser473)
# T4 construct: Western blot analysis of cultured human (293), mouse (N2A) and rat (PC12) cells; endogenous in cells; host or cells: mouse N2A cells
# T4 sequence (O08586 whole entry): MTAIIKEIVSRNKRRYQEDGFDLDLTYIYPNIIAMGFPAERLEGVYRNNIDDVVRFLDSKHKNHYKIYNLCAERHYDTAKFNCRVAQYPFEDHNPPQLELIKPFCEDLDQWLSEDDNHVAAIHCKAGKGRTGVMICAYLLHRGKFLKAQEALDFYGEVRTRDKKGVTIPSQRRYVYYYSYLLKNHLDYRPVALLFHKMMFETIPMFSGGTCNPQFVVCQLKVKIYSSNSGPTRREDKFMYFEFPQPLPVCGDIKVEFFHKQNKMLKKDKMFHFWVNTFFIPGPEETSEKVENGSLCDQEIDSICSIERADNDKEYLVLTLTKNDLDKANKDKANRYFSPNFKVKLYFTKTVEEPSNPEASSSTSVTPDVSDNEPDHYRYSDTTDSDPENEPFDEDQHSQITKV
# Procedure: (§2) FIGS. 13A-13D. Western blot analysis of cultured human (293) (FIG. 13A), mouse (N2A) (FIG. 13B) and rat (PC12) (FIG. 13C) cells treated with Luteolin (P2) and Quercetin (P6). FIG. 13D: Protein levels of PTEN, AKT, pAKT (Ser473) and beta-Tubulin were measured.
# (§3) The inhibition of PTEN was tested following the phosphorylated form of AKT.
# PTEN [5] = molecular target: T5, PTEN (Rattus norvegicus, UniProt O54857); test: Western blot of phosphorylated AKT (PTEN inhibition), rat PC12 cells; assay type: cell-based; conditions: increasing concentrations, pAKT (Ser473)
# T5 construct: Western blot analysis of cultured human (293), mouse (N2A) and rat (PC12) cells; endogenous in cells; host or cells: rat PC12 cells
# T5 sequence (O54857 whole entry): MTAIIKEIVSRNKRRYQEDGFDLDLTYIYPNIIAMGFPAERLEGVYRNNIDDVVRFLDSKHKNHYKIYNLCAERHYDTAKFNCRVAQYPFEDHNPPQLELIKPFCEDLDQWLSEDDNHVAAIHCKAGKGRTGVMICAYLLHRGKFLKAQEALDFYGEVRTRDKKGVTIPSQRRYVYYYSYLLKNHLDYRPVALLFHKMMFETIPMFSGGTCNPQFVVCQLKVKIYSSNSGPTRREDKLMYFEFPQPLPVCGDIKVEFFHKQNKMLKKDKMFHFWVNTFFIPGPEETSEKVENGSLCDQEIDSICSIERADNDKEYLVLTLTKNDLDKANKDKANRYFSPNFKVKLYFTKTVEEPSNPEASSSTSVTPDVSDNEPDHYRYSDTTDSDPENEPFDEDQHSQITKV
# Procedure: as §2, §3
# PTEN [6] = molecular target: T6, PTEN (Homo sapiens, UniProt P60484); test: Western blot of phosphorylated AKT (PTEN inhibition), human 293 cells; assay type: cell-based; conditions: increasing concentrations, pAKT (Ser473)
# T6 construct: Western blot analysis of cultured human (293), mouse (N2A) and rat (PC12) cells; endogenous in cells; host or cells: human 293 cells
# T6 sequence (P60484 whole entry): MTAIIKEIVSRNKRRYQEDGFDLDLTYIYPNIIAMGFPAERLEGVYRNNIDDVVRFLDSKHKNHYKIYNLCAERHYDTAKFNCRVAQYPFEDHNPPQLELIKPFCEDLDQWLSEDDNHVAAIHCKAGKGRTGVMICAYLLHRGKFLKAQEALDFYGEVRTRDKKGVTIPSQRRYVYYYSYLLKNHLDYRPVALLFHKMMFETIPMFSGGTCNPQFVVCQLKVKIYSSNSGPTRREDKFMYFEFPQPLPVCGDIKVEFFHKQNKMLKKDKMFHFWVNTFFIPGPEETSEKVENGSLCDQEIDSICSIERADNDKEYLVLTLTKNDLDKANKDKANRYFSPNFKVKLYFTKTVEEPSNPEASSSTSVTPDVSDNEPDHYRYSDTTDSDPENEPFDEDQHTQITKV
# Procedure: as §2, §3
# [7] = system: optic nerve / retinal ganglion cell axons; test: optic nerve regeneration after crush injury in C57BL/6 mice; assay type: in vivo, mouse; conditions: between 200-500 um, after 2 weeks, vs control animals, p-value less than 0.04
# Procedure: FIGS. 6A-6E. Ambroxol promotes retinal ganglion cell axonal regeneration. FIG. 6A: Ambroxol (Amb-25 mg/ml) or vehicle (Veh) was injected into the eye just before optic nerve crush (ONC-Day 1). Animals received daily […] of ambroxol (25 mg/ml) or vehicle by intraperitoneal (IP) injection from day 1 to day 14. At day 7 ambroxol (25 mg/ml) or vehicle was injected into the eye. Tracer CTB was injected into the eye on day 11 and animals sacrificed on day 14. FIG. 6B: Representative retina whole mount images with Tuj1 antibody staining 2 weeks post injury and (FIG. 6C) histogram depicting quantification of retinal ganglion cell (RGCs) survival measured by Tuj1 antibody staining Scale bar: 25 um FIG. 6D: Representative confocal images of optic nerve sections from WT animal treated with vehicle (n=10) and WT animal treated with ambroxol (25 mg/ml, n=13). Axons are labeled with CTB. Scale bar: 100 um. Measurements were made blinded to treatment. FIG. 6F: Quantification of number of axons in FIG. 6D as function of distance from crush site. T-test ** p<0.001 * p<0.05.
# Ambroxol was tested for the ability to enhance CNS regeneration in vivo after injury. The optic nerve regeneration effect in mice after crush injury was evaluated after treating with and without ambroxol. […] In summary, a FDA approved drug—ambroxol accelerates and improves neural repair in the CNS. […]
# [8] = system: optic nerve / retinal ganglion cell axons; test: optic nerve crush in PTEN knockout mice treated with ambroxol; assay type: in vivo, mouse; conditions: at 2500 um, after 2 weeks, vs control animals, p-value 0.02
# Procedure: FIGS. 15A-15E. Ambroxol promotes retinal ganglion cell axonal regeneration in PTEN knockout mice. Ambroxol (Amb-25 mg/ml) or vehicle (Veh) was injected into the eye just before optic nerve crush. Animals received daily 300 mg/kg of ambroxol or vehicle by intraperitoneal (IP) injection for the first five days after the crush and then they received 150 mg/kg until day 14. At day 7 ambroxol (25 mg/ml) or vehicle was injected into the eye. Tracer CTB was injected into the eye on day 11 and animals sacrificed on day 14. FIG. 15A: Representative confocal images of optic nerve sections from PTEN^−/− animal treated with vehicle (n=4) and PTEN^−/− animal treated with ambroxol (n=4). Axons are labeled with CTB. Scale bar: 100 um. Measurements were made blinded to treatment. FIG. 15B: Quantification of number of axons in […]. T-test ** p<0.01 * p<0.05. FIG. 15C: Representative retina whole mount images with Tuj1 and P-S6 antibody staining 2 weeks post injury and FIGS. 15D-15E: Quantification of retinal ganglion cell (RGCs) survival measured by Tuj1 and P-S6 antibody staining Scale bar: 25 um.
# Without wishing to be bound by any theory, since ambroxol recapitulates many of the core expression changes in the M280, we reasoned that it would promote CNS regeneration. […]
# [9] = system: genes from the M77 network in DRG neurons; test: qPCR of critical PPI network genes in DRG neurons treated with ambroxol; assay type: cell-based; conditions: DRG neurons treated with 60 mM ambroxol (4 days), P-value<0.05, includes ATF3, FOS, JUN, SMAD1, SP1
# From the text: (§4) FIGS. 5A-5F. Targeting candidate RAG regulatory network using small-molecules. Gene expression signatures after PNS injury were used to query drug-related expression profiles in the Connectivity Map. Using a pattern-matching algorithm, we selected three drugs (ambroxol, disulfiram and lasalocid) based on enrichment and specificity scores. FIG. 5A: Protein-protein interaction (edges) network of co-expressed and differentially expressed genes (nodes) after PNS injury depicting up-regulation and down-regulation after SN lesion; up-regulation and down-regulation after ambroxol treatment (from Connectivity Map). FIG. 5B: Histogram depicting differences in DRG neurite outgrowth after treatment with drugs. […] FIG. 5C: Histogram depicting differential expression of mRNA for critical genes in PPI network validated by qPCR of DRG neurons treated with […] ambroxol (4 days). Legend (FIG. 5C, top to bottom): ATF3, CASP3, EGR1, FOS, JAK2, JUN, KLF4, MYC, PLAUR, RELA, SMAD1, SP1, STAT1 and STAT3: FIGS. 5D-5F: Ambroxol concentration response. […] FIG. 5E: Photomicrographs of DRG neurons in presence of vehicle (control) or 40 μM ambroxol, immunostained for βIII-tubulin. Images acquired using ImagExpressmicro. Scale bar, 50 μm. FIG. 5F: Histogram depicting concentration-response for neurite outgrowth per neuron vs. ambroxol concentration, mean±SEM for three independent experiments. […]
# DRG neurons = test: neurite outgrowth in DRG neurons after treatment with drugs; assay type: cell-based; conditions: vs control; p<0.05, t-test; FIG. 5B
# From the text: as §4
# [10] = system: regeneration-associated marker genes; test: q-RT-PCR of regeneration-associated marker genes after treatment with candidate drugs; assay type: cell-based, mouse; conditions: N2A cell lines treated 48 hours, Gapdh internal control, FIG. 10
# Procedure: FIG. 10. Quantitative real-time RT-PCR after treatment of candidate drugs. N2A cell lines were treated with the corresponding drugs for 48 hours and the expression levels of the marker genes was measured by q-RT-PCR, using Gapdh as internal control. Nodes represents the genes tested, the edges represent the direction of regulation (i.e., up-regulation, downregulation) and the edge size represents the extent of fold change.
# The gene expression signatures were used to identify FDA approved drugs (Lamb 2007) that may modulate the signaling pathways and gene expression necessary for regeneration. […] Based on the results obtained from the pattern matching algorithm present within the Connectivity Map database, the top three matching expression patterns were chosen based on the connectivity and specificity score, which represented the drugs (ambroxol, lasalocid, and disulfiram). The identified compounds were tested for their effect on gene expression levels of regeneration-associated marker genes and to examine the effect on neurite outgrowth in DRG neurons. […] Since the original pattern was derived from non-neuronal cell lines (30), we tested if ambroxol can change the gene-expression levels of these markers in DRG neurons. […] But, it had no previous relationship to regeneration.
Compound,expression level of phosphorylated form of STAT3 (denoting SOCS3 inhibition) (SOCS3 [1]),expression level of phosphorylated form of STAT3 (denoting SOCS3 inhibition) (SOCS3 [2]),expression level of phosphorylated form of STAT3 (denoting SOCS3 inhibition) (SOCS3 [3]),expression level of phosphorylated form of AKT (denoting PTEN inhibition) (PTEN [4]),expression level of phosphorylated form of AKT (denoting PTEN inhibition) (PTEN [5]),expression level of phosphorylated form of AKT (denoting PTEN inhibition) (PTEN [6]),further results
"O=c1c(-c2ccc(O)cc2)coc2cc(O)cc(O)c12 [Genistein, genistein]",increased expression level of phosphorylated form of STAT3,increased expression level of phosphorylated form of STAT3,increased expression level of phosphorylated form of STAT3,,,,
"O=c1cc(-c2ccc(O)c(O)c2)oc2cc(O)cc(O)c12 [Luteolin, luteolin]",,,,increased expression level of phosphorylated form of AKT,increased expression level of phosphorylated form of AKT,increased expression level of phosphorylated form of AKT,
"Cc1ccc(N(CC2=NCCN2)c2cccc(O)c2)cc1 [Phentolamine, phentolamine]",increased expression level of phosphorylated form of STAT3,increased expression level of phosphorylated form of STAT3,increased expression level of phosphorylated form of STAT3,,,,
"O=c1c(O)c(-c2ccc(O)c(O)c2)oc2cc(O)cc(O)c12 [Quercetin, quercetin]",,,,increased expression level of phosphorylated form of AKT,increased expression level of phosphorylated form of AKT,increased expression level of phosphorylated form of AKT,
"Nc1c(Br)cc(Br)cc1CNC1CCC(O)CC1 (stereo not drawn) [ambroxol, trans-4-(2-Amino-3,5-dibrombenzylamino)-cyclohexanol]",,,,,,,increase in axon regeneration beyond the site of the lesion [7]: > 1.5 fold; increase in regeneration beyond the site of the lesion [8]: > 2.9 fold; number of genes with significant differential expression among 14 randomly tested genes from the M77 [9]: 8 genes
CC[C@@H](C(=O)[C@@H](C)[C@@H](O)[C@H](C)CCc1ccc(C)c(O)c1C(=O)O)[C@H]1O[C@](CC)([C@H]2CC[C@](O)(CC)[C@H](C)O2)C[C@@H]1C [lasalocid],,,,,,,DRG neurite outgrowth after treatment with drugs (DRG neurons): only ambroxol showed significant enhancement; gene-expression levels of marker RAGs [10]: significant changes
